From patent US20060234390A1, “Process for determining target function and identifying drug leads” (priority 2002, published 2006)
“Also recorded” adds a separate entry of the source.

Experiments:
[1] = target: T1, P38 MAP kinase (Homo sapiens, UniProt Q16539); assay: HPLC based Chemical Array binding assay (protein-bound vs free compounds, UV and mass spectrum); conditions: for identity of the compound extracted from the mixture and released from the protein (mass spectrum): 5 uM P38 MAP kinase + 5 uM mixture of Quinine and 86002
T1 construct: purchased Sigma
T1 sequence (Q16539 whole entry): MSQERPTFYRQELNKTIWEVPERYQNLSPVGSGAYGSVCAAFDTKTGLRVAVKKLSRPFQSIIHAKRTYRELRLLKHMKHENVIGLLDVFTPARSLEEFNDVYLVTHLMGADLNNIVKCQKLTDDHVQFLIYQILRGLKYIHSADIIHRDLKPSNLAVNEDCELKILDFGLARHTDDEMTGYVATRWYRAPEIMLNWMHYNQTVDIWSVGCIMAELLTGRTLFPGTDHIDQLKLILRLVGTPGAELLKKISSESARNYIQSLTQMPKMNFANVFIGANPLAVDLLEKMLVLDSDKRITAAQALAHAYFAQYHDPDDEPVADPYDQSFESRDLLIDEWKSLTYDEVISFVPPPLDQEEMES
Procedure: (§1) Drug-like chemical compounds representing a collection of drug-like chemical scaffolds (Sigma-Aldrich, ICN, Calbiochem) were weighed and mixed to a final concentration of 20 uM each in 50 mM ammonium acetate pH 7, 10% methanol. 1 uM to 20 uM tubulin or P38 MAP kinase (Sigma) were dispensed into HPLC low volume sample cuvettes (Waters) and mixed with 0.5 uM to 20 uM compounds. After mixing and a 15 minute 37° C. incubation, the cuvettes were placed on ice and injected into the HPLC (Waters 2690) using an autoinjector (Waters) onto a 150 mm×2.1 mm ID Pinkerton GFF II column (Regis Technologies) for dual size exclusion and phase separation with a 50 mM ammonium acetate, 10% methanol running buffer.
(§2) We optimized the column dimensions and the choice of resin to maximize the separation of the compounds bound to the protein targets from the unbound compounds. Resins which elute protein in the void volume and small column diameters and lengths which minimize the void volume were used. Such columns minimize the amount of dilution of the protein sample and minimize the time required for each assay, thereby minimizing the amount of bound compound that dissociates from the protein (as governed by the Koff rate). […] A number of HPLC columns, including the Regis 150 mm×2.1 mm GFF II column, a 1.0 mm×100 mm YMC Diol column, a 2.1 mm×150 mm Phenomonex Polyhydroxymethacrylate (Polysep) column, and a Jordi 2.1×150 mm Divinyl Benzene column, were tested. Similarly, other running buffers were tested in which the salt and methanol concentration were varied, and the ratio of protein target to small compounds in the binding reaction was varied from 1000:1 to 1:1000. Resins representative of different classes were tested for their ability to separate the protein fraction from the drug-like small molecule compounds, and to minimize the cycle time for all of the compounds to elute from the column. These characteristics of the columns are determined by surface properties and limitations on flow rates due to resins collapsing under backpressure. […] In applications where a longer cycle time (e.g., over 10 minutes per run) is acceptable, any of the above columns or a series of the above columns may be used.
(§3) For shorter cycle times, other columns may be used.

[2] = tested on: tubulin; assay: as above; conditions: tubulin 0, 5 and 20 uM; 10 compound mixture, 0.5 uM each; GFF II column
Procedure: as §1, §2, §3

[3] = target: T1, P38 MAP kinase; conditions: stated as a known property of the ligand; cited from earlier work
[4] = P38 0, 2.5, 5 and 10 uM, 86002 and quinine 5 uM each, Diol column

Compound	mass spectrum of the collected protein fraction compared with the standard ([1]; 5 uM P38 MAP kinase + 5 uM 86002, Diol column)	identity of the compound extracted from the mixture and released from the protein (mass spectrum) [1]	reduction of the free compound UV peak with increasing P38 MAP kinase [1, 4]	reduction of the free compound UV peak with increasing P38 MAP kinase ([1]; P38 0, 3.5 and 5 uM, 10 compound mixture, 0.5 uM each, GFF II column)	level of the characteristic peak in the mass spectrum of the protein fraction ([1]; P38 2 uM, 100 compound mixture, 20 uM each, GFF II column)	level of the characteristic peaks in the mass spectrum of the protein fraction ([1]; P38, 10 compound mixture, 0.5 uM each, GFF II column)	reduction of the free compound UV peak with increasing tubulin [2]	affinity for the P38 MAP kinase protein target [3]
Fc1ccc(-c2nc3n(c2-c2ccncc2)CCS3)cc1 [SKB86002]	corresponded to the 86002 standard	identified as 86002	concentration dependant reduction	concentration dependent reduction	binds and extracts; also recorded: at a level far higher than other peaks	at a level far higher than other peaks	negligible reduction	micromolar affinity
C=C[C@H]1CN2CC[C@H]1C[C@H]2[C@H](O)c1ccnc2ccc(OC)cc12.Cl [quinine, quinine monohydrochloride]		not quinine	negligible reduction					
